Reference: patent US7202274B2, “Cyclic hemiacetal derivative and use thereof” (Senju Pharmaceutical Co., Ltd., priority 2002, dated 2007)
Like-named read-outs stand apart in the source and are kept apart here. Each block holds one compound with its values, some of them ahead of it.

What was measured:
N1E-115 cells = assay type: cell-based; details: mouse, 24 h
Experimental: Mouse neuroblastoma derived cell lines (N1E-115 cells) were seeded in a 96 well microplate at 10^4 per well and cultured overnight in Dulbecco's Modified Eagle's Minimum Essential Medium (100 μL, DMEM, GIBCO) containing 10% FBS at 37° C. under 5% CO2. The whole amount of the culture solution was removed, and the medium was changed to various concentrations of a test drug solution (100 μL, prepared by dissolving Compound 1 in 99.5% ethanol and adjusting final concentration of ethanol to 1% with DMEM) and the cells were cultured for 24 hr. The culture supernatant and cells were separately recovered. The cells were ultrasonicated to give soluble fractions and the lactic dehydrogenase (LDH) activity of each of them was determined with an LDH cytotoxicity detection kit (MK401, manufactured by Takara Bio Inc.), and an LDH release rate was determined by the following formula and taken as a proportion of the cells suffered from cytotoxicity. LDH release rate (%)={LDH activity of culture supernatant/(LDH activity of culture supernatant+intracellular LDH activity)}×100
LD50 was determined from the LDH release rate at each test drug concentration by LD50/ED50 probit method of SAS preclinical package (Ver. 6.12).

[1] = Aqueous humor penetration test; assay type: in vivo, Japanese white rabbits; details: rabbit
Experimental: The suspension of Formulation Example 4 to be mentioned later was instilled by 50 μL into the both eyes of Japanese white rabbits (body weight about 2 kg, purchased from Fukusaki Rabbit Union). At 0.25, 0.5, 1 and 3 hr after the instillation, the rabbits were sacrificed with pentobarbital and aqueous humor was recovered. Using a column switching system HPLC, the concentration of Compound 1 in the aqueous humor was measured.

melting point: 61.4 to 61.9 °C
SMILES: Cc1cccc(NC(=S)N[C@@H](CC(C)C)C(=O)N[C@H]2CCOC2O)c1 (stereo partly drawn) [Compound 10, (2S)-4-methyl-2-((((3-methylphenyl)amino)thioxomethyl)amino)-N-((3S)-tetrahydro-2-hydroxy-3-furanyl)pentanamide]

SMILES: CC(C)C[C@H](NC(=S)Nc1ccccc1)C(=O)N[C@H]1CCOC1O (stereo partly drawn) [Compound 1, (2S)-4-methyl-2-(((phenylamino)thioxomethyl)amino)-N-((3S)-tetrahydro-2-hydroxy-3-furanyl)pentanamide]
LDH release rate (N1E-115 cells; 0.1 mM): 9.32 ± 0.07% | LDH release rate (N1E-115 cells; 0.5 mM): 11.05 ± 0.72% | LDH release rate (N1E-115 cells; 1 mM): 14.22 ± 1.14% | LDH release rate (N1E-115 cells; 2 mM): 47.73 ± 1.66% | AUC ([1]; Japanese white, aqueous humor, topical, 50 μL per eye, 0-3 hr after the instillation of the suspension of Formulation Example 4, read-out: area under drug concentration-time curve (AUC) of amount penetrated to aqueous humor): 4.79 µM·h | Cmax ([1]; Japanese white, aqueous humor, topical, 50 μL per eye, 50 μL instillation of the suspension of Formulation Example 4, read-out: concentration in the aqueous humor, maximum (Cmax)): 2900 nM | time at which concentration in the aqueous humor reached the maximum ([1]; 50 μL instillation of the suspension of Formulation Example 4): 0.5 h

melting point: 57.9 to 58.9 °C
SMILES: Cc1ccccc1NC(=S)N[C@@H](CC(C)C)C(=O)N[C@H]1CCOC1O (stereo partly drawn) [Compound 9, (2S)-4-methyl-2-((((2-methylphenyl)amino)thioxomethyl)amino)-N-((3S)-tetrahydro-2-hydroxy-3-furanyl)pentanamide]

melting point: 51.3 to 52.9 °C
SMILES: CCC(C)[C@H](NC(=S)Nc1ccccc1)C(=O)N[C@H]1CCOC1O (stereo partly drawn) [Compound 2, (2S)-3-methyl-2-(((phenylamino)thioxomethyl)amino)-N-((3S)-tetrahydro-2-hydroxy-3-furanyl)pentanamide]
